What is called Kd is the equilibrium constant for the complex coming apart. Low values mean a tighter complex, high ones a looser complex.

Test [1] relates to S100A8-mediated cell migration. As to conditions: ref [8]; cited from earlier work. From the text: VEGF is another NFκB-mediated re ...
The test system of the next test is CD8+ cells. As to conditions: LLC-tumor-bearing mice; ref [8]; cited from earlier work.
For another test, the system named is TLR4. Conditions: ref [33], [34]; cited from earlier work. From the text: The difference between TAK-242 and our inhibitory peptides is the target molecules. […] Qin et al. previously generated two peptibodies, peptide-Fc fusion proteins, targeting mouse MDSCs using a competitive peptide phage display platform. Peptibodies recognize the cell surface of mouse MDSCs. Although peptibodies also recognize S100A9, mouse MDSCs ar ...

Test [2] deals with SW480-transplanted xenograft. The test can be described thus: Tumor growth in SW480-transplanted xenograft model. It counts as in vivo, Balb nu/nu mice. Conditions: SW480 xenograft, various concentrations every 3 days, *P < 0.05 vs control.
The target in another test is T1, TLR4/MD-2 complex (Homo sapiens, UniProt O00206+Q9Y6Y9).
T1 construct: TLR4/MD-2 recombinant protein (2 µg/ml) was added to each well
The test can be described thus: TLR4/MD-2 binding to immobilized tetravalent ILVIK (ELISA). As to conditions: various TLR4/MD-2 concentrations, one representative of three experiments (Fig. 7F). On the procedure:
S100A8 recombinant protein was purified as previously described. These proteins were immobilized on Maxisorp plates (Thermo Fisher Scientific, Waltham, MA, USA), followed by blocking with protein-free blocking buffer (Thermo Fisher Scientific). TLR4/MD-2 recombinant proteins with various concentrations of candidate peptides were then added to the indicated S100A8-immobilized ELISA plates for 2 h. The plates were washed, incubated with anti-TLR4 antibody, and HRP-conjugated secondary antibody, followed by the addition of substrate. The reaction was stopped by addition a 2N H2SO4 solution. Absorbance OD450/OD650 was measured using a microplate reader (Thermo Fisher Scientific). Maxisorp plates were also used for peptide coating. After blocking with protein-free blocking buffer, the coated plates were washed, and TLR4/MD-2 recombinant protein (2 µg/ml) was added to each well. The plates were incubated with a TLR4 antibody followed by horseradish peroxidase (HRP)-labeled anti-rabbit IgG. […] The amount of interleukin-8 (IL-8) or VEGF in the supernatants were analyzed by ELISA kits (R&D Systems, Mineapolis, MN) according to the manufacturer’s instructions.
Fig. 7 Isolation of multivalent S100A8 inhibitory peptides using divalent peptide libraries based on the sequences of peptide3A5. […] The binding affinities to TLR4/MD-2 complex were determined using an ELISA-based assay. […]
(In an ELISA, binding on a coated surface is turned into a signal by an enzyme label.)

Test [3] deals with tumor cells and macrophages. The test can be described thus: Cytokine/chemokine induction in tumor cells and macrophages. The class given is cell-based. As to conditions: possible mechanism scheme, Fig. 7I.
The next test deals with human TLR4/MD-2 complex. The test can be described thus: ELISA, TLR4/MD-2 binding to immobilized S100A8-derived peptides (overlapping peptides, alanine scan). As to conditions: ELISA, peptide immobilized, TLR4/MD-2 2 µg/ml. On the procedure:
(§1) S100A8 recombinant protein was purified as previously described. These proteins were immobilized on Maxisorp plates (Thermo Fisher Scientific, Waltham, MA, USA), followed by blocking with protein-free blocking buffer (Thermo Fisher Scientific). TLR4/MD-2 recombinant proteins with various concentrations of candidate peptides were then added to the indicated S100A8-immobilized ELISA plates for 2 h. The plates were washed, incubated with anti-TLR4 antibody, and HRP-conjugated secondary antibody, followed by the addition of substrate. The reaction was stopped by addition a 2N H2SO4 solution. Absorbance OD450/OD650 was measured using a microplate reader (Thermo Fisher Scientific). Maxisorp plates were also used for peptide coating. After blocking with protein-free blocking buffer, the coated plates were washed, and TLR4/MD-2 recombinant protein (2 µg/ml) was added to each well. The plates were incubated with a TLR4 antibody followed by horseradish peroxidase (HRP)-labeled anti-rabbit IgG. For detection of IL8 and VEGF in culture supernatants, SW480 cells were pretreated with the indicated peptides, and followed by stimulation with S100A8 for 24 h. The amount of interleukin-8 (IL-8) or VEGF in the supernatants were analyzed by ELISA kits (R&D Systems, Mineapolis, MN) according to the manufacturer’s instructions.
(§2) Fig. 2 Identification of S100A8 binding sites to human TLR4/MD-2. […] TLR4/MD-2 recombinant proteins were immobilized to the ELISA plate. After blocking, a full length or deletion mutant of S100A8 was added to the plate. The more detailed methods are described in Materials and Methods. […] B A series of overlapping S100A8 synthetic peptides. The TLR4/MD-2 recombinant proteins were added to each well of peptide immobilized plates. The affinity to TLR4/MD-2 was determined. Data are shown as mean ± SD. C The competitive activity was determined using ELISA. Data are shown as mean ± SD. D The TLR4/MD-2 was mixed with S100A8 with/without the indicated peptides, and immunoprecipitated using an anti-TLR4 antibody. TLR4 or S100A8 was visualized. Similar results were obtained in three independent experiments. […] Total RNAs from SW480 cells with/without treatment of the peptide candidates were extracted and qPCR analysis was performed using relevant primer sets and SYBR green. Relative expression levels were compared. […] TEXT PRINTED IN THE PICTURE: (A) Full length: TLR4/MD-2 binding: + | (A) S100A8-ΔC: TLR4/MD-2 binding: − | (A) S100A8-N: TLR4/MD-2 binding: −
Fig. 3 Identification of high affinity peptides to TLR4/MD-2 using alanine scanning based on the peptide #3 amino acid sequences. A Lists of peptides used for alanine scanning. […] Similar results were obtained in three independent experiments.

In the next test the test system is S100A8-TLR4/MD-2 complex. The test can be described thus: Competitive inhibition of S100A8-TLR4/MD-2 binding (ELISA, S100A8 immobilized; also immunoprecipitation). On the set-up: species or system human. As to conditions: ELISA (Fig. 2C), immunoprecipitation with anti-TLR4 antibody (Fig. 2D). On the procedure:
as §1, §2
(§3) Fig. 4 Improvement of competitive inhibition activity by divalent peptide3A5. A The binding capacity was measured at the indicated concentration using an ELISA-based assay. Similar results were obtained in three independent experiments. B SW480 cells were pretreated with 2.5 µM of divalent peptide3A5, and then stimulated with human S100A8 recombinant protein. After 30 min, cell lysates were subjected to western blotting using the indicated antibody. The divalent peptide#3 or peptide3A5 reduced the expression of S100A8-mediated IL-8 (C) and VEGF (D) induction. Total RNAs from SW480 cells with/without treatment of the peptide candidates were extracted and qPCR analysis was performed using relevant primer sets and SYBR green. Relative expression levels were compared. Peptide #3 suppresses S100A8-mediated IL-8(E) and VEGF (F) secretion in SW480 cells.

Test [4] concerns SW480 cells. The test can be described thus: qPCR, S100A8-mediated IL-8 and VEGF mRNA induction in SW480 cells. It counts as cell-based, human. The protocol: SW480 cells were treated with S100A8 in Dulbecco’s Modified Eagle Medium/HamF12 supplemented with 0.1% bovine serum albumin for cytokine induction. Total RNA was extracted using the RNeasy Mini Plus (Qiagen, Hilden, Germany). Complementary DNA was synthesized using the PrimeScript 1st Strand Synthesis kit (Takara Bio, Japan). Quantitative PCR (qPCR) analysis was performed using the PowerUp^TM SYBR^TM Green mixture (Thermo Fisher Scientific) and the StepOnePlus Real Time PCR System (Thermo Fisher Scientific). Gene expression levels were calculated from Ct values, and the relationship between the Ct value and the logarithm of the copy number of a target gene was confirmed to be on a linear line using the corresponding isolated DNA and its serial dilutions as a standard. Thus, the gene expression levels of IL-8 and VEGF were normalized against that of β-actin in each sample. The following primers were used; β-actin, 5′-[…]-3′ and 5′-[…]-3′; IL-8, 5′-[…]-3′ and 5′-[…]-3′; VEGF, 5′-[…]-3′ and 5′-[…]-3′.
as §2, §3
In general terms: In qPCR the cycle at which signal appears reflects the starting amount.

The test system of test [5] is SW480 cells. The test can be described thus: ELISA, IL-8 and VEGF secretion of SW480 cells. It counts as cell-based, human. As to conditions: peptide pretreatment, S100A8 24 h, supernatant ELISA, *P < 0.05 vs S100A8. The protocol: as §1
Test [6] relates to SW480 cells. The test can be described thus: S100A8-mediated cell migration of SW480 cells. The class given is cell-based, human. Conditions: Supplementary Fig. 1B.

Positions of bridges follow the written chain, without caps; N, C: chain ends. Non-standard residues stand in square brackets, D forms with d. Residues, ends and D or L forms follow the SMILES beside them. Chains are numbered I, II in the order given. ξ: configuration not given here. ξK = NCCCCC(N)C(=O)O; Ahx = NCCCCCC(=O)O

T1 sequence (O00206 24-631 limits assumed): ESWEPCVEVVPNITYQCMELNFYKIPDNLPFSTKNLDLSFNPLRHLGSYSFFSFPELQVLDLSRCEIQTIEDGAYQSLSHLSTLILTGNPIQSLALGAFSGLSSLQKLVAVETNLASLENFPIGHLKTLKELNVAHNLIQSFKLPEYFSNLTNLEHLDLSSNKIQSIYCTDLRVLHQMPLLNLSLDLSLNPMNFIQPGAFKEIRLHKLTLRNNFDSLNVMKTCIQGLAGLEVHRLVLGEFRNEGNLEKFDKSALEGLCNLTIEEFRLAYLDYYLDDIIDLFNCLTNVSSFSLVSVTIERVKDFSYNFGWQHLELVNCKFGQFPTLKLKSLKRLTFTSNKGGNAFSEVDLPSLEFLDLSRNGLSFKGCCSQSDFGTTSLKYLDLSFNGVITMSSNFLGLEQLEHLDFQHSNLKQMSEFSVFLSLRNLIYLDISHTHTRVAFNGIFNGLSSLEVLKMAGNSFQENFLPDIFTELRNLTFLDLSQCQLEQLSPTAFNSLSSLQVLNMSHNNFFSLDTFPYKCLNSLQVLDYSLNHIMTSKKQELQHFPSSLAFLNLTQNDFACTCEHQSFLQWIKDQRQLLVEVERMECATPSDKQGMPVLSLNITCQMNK
T1 sequence (Q9Y6Y9 17-160 partner limits assumed): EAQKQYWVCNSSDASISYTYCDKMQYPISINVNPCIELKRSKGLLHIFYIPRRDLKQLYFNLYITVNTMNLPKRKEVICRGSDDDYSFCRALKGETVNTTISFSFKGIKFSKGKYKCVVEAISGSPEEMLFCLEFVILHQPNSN

In the case of `CCCCCC/C=C\CCCCCCCCCC(=O)N[C@H]1[C@H](OC[C@H]2O[C@H](OP(=O)(O)O)[C@H](NC(=O)CC(=O)CCCCCCCCCCC)[C@@H](OCCCCCCCCCC)[C@@H]2O)O[C@H](COC)[C@@H](OP(=O)(O)O)[C@@H]1OCC[C@@H](CCCCCCC)OC` [Eritoran, reference compound], the “S100A8-mediated cell migration, Eritoran” value in test [1] is “inhibited S100A8-mediated cell migration”. Moreover, the “intratumoral infiltration of CD8+ cells, Eritoran” value in the test on CD8+ cells is “increased intratumoral infiltration of CD8^+ cells”.

Regarding `CCOC(=O)C1=CCCC[C@H]1S(=O)(=O)Nc1ccc(F)cc1Cl` [TAK-242, ethyl (6R)-6-[N-(2-Chloro-4-fluorophenyl)sulfamoyl]cyclohex-1-ene-1-carboxylate], the “TLR4 inhibition, site” value in the test on TLR4 is given as “inhibits TLR4 at intracellular domains”.

Take `CC[C@H](C)[C@H](NC(C)=O)C(=O)N[C@@H](CC(C)C)C(=O)N[C@H](C(=O)N[C@H](C(=O)N[C@@H](CCCCN)C(=O)NCCCCCC(=O)NCCCCC(NC(=O)CCCCCNC(=O)[C@H](CCCCN)NC(=O)[C@@H](NC(=O)[C@@H](NC(=O)[C@H](CC(C)C)NC(=O)[C@@H](NC(C)=O)[C@@H](C)CC)C(C)C)[C@@H](C)CC)C(=O)NCCCCC(NC(=O)C(CCCCNC(=O)CCCCCNC(=O)[C@H](CCCCN)NC(=O)[C@@H](NC(=O)[C@@H](NC(=O)[C@H](CC(C)C)NC(=O)[C@@H](NC(C)=O)[C@@H](C)CC)C(C)C)[C@@H](C)CC)NC(=O)CCCCCNC(=O)[C@H](CCCCN)NC(=O)[C@@H](NC(=O)[C@@H](NC(=O)[C@H](CC(C)C)NC(=O)[C@@H](NC(C)=O)[C@@H](C)CC)C(C)C)[C@@H](C)CC)C(N)=O)[C@@H](C)CC)C(C)C` (some centres unmarked) [Tetravalent ILVIK] (I: Ac-ILVIK[Ahx][ξK][ξK]-NH2 / II: Ac-ILVIK[Ahx][ξK] / III: Ac-ILVIK[Ahx] / IV: Ac-ILVIK[Ahx]; amide I:7-IV:C, I:8-II:C, II:7-III:C): the “tumor growth, multivalent ILVIK” value in test [2] was “inhibits tumor growth”; in [2] (listed as tetravalent ILVIK) it was “more effectively inhibited tumor progression”. In addition, at TLR4/MD-2 complex, the equilibrium dissociation constant (Kd) fell in the range of 4.58 to 8.78 nM. Also, in [3], the induction of cytokines/chemokines entry is “suppress the induction of cytokines/chemokines in both tumor cells and macrophages”.

Consider “FQEFLILVIK [Peptide #3, S100A8-derived peptide […] from the carboxyl terminal region]”, for which the “TLR4/MD-2 binding of peptide” value in the test on human TLR4/MD-2 complex is on record as “most strongly bound to the TLR4/MD-2 complex among a series of S100A8-derived peptides”; in the test with human TLR4/MD-2 complex (listed as peptide #3), “could bind to TLR4/MD-2”. The “competition for S100A8-TLR4/MD-2 binding” value in the test on S100A8-TLR4/MD-2 complex was “competed for binding between S100A8 and the TLR4/MD-2 complex”. The “IL-8 induction by peptide alone (agonism)” value with SW480 cells [4] (no S100A8) is recorded as “failed to induce IL-8 production”. Also, the “S100A8-mediated VEGF induction (mRNA)” value in the test with SW480 cells [4] (qPCR, normalized to β-actin) is recorded as “suppressed S100A8-induced VEGF induction”. For the same molecule, in the test on SW480 cells [4] (qPCR, normalized to β-actin, *P < 0.05 vs S100A8), the “S100A8-mediated IL-8 induction (mRNA)” value is “reduces the expression of S100A8-mediated IL-8 induction”. For the same molecule, the entries for the “S100A8-mediated IL-8 secretion” value with SW480 cells [5] and with SW480 cells [5] (listed as peptide#3) were “suppresses S100A8-mediated IL-8 secretion” and “suppressed”, respectively. In the test with SW480 cells [5], the “S100A8-mediated VEGF secretion” value is “suppresses”. Further, the S100A8-mediated cell migration result in the test on SW480 cells [6] was “significantly inhibited”.
